From US10501516B2, “Peptide compound” (TAKEDA PHARMACEUTICAL COMPANY LIMITED, priority 2016, dated 2019)
Square brackets hold non-standard residues; d marks the D form. Side chains are listed from the residue outwards. Peptide text beside a SMILES is read from it. * marks the point of attachment. NMeY = CN[C@@H](Cc1ccc(O)cc1)C(=O)O; Palmitoyl = CCCCCCCCCCCCCCCC(=O)*; αMeF = C[C@](N)(Cc1ccccc1)C(=O)O; Iva = CC[C@](C)(N)C(=O)O; Aib = CC(C)(N)C(=O)O

Legend:
cynomolgus monkeys = assay: Food intake and emesis study in cynomolgus monkeys; type: in vivo, cynomolgus monkey
Method: One male and one female cynomolgus monkeys (age: 4 years old, body weight: 3.9 kg in male, 2.7 kg in female) were used. The monkeys were housed in individual cages with a 12 hr:12 hr light-dark schedule at 22-27° C., and given 100 g of pellet diet (Oriental Yeast Co. Ltd) once daily. The diet was supplied after completion of the clinical observation at 8 hour post dose on the days of dosing. On other days during the experimental period, the diet was supplied each day after the completion of examinations and the remaining diet was withdrawn on the following morning. P41 was dissolved in 0.5 w/v % mannitol solution. The compound at 0.05 mg/kg was subcutaneously administered at day 1 and then at 0.15 mg/kg at day 4. Body weight was measured once during the pre-dosing period and on day 1, 4, 8, 11 and 15. Food intake was measured every day during the experimental period.

Male C57BL/6J mice = assay: Conditioned taste aversion (CTA) test; type: in vivo, mouse; conditions: 3 nmol/kg s.c.
Method: Male C57BL/6J (9 weeks old) mice were habituated to time-restricted bottled water supply (2-3 hours/day) and subcutaneous injection of saline for 1 week. Mice were divided into the groups based on the data of body weight and water intake. CTA test was performed according to the following protocol. On day 1 for the first conditioning, mice were given 0.1% sodium saccharin solution to drink for 3 hours. Ten-minutes after supplying the saccharin solution, vehicles, liraglutides and P41 were administered subcutaneously. […] On day 2, mice were given tap water for 3 hours and subcutaneous injection of saline after water supply. On day 3, the second conditioning was conducted as the same procedure used on day 1. On day 4, mice were given tap water for 3 hours without subcutaneous injection. On day 5, both tap water and saccharin solution were supplied to mice for 3 hours without subcutaneous injection and the intake of each fluid was measured. Saccharin preference ratio (%) was calculated according to the following equation: {(amount of saccharin intake)/(amount of saccharin intake+amount of water intake)}×100.

male C57BL/6J mouse = assay: Evaluation of feeding suppressive action in mice; type: in vivo; conditions: 30 nmol/kg s.c. once a day for 3 days; 3-days cumulative food consumption vs solvent control
Method in brief: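 Male C57BL/6J mice, 8-9 weeks, ad libitum fed, given compound (30 or 100 nmol/2 mL in 10% DMSO saline) s.c. at 2 mL/kg once daily for 3 days. Cumulative 3-day food consumption measured by weighing; suppression rate (%) calculated relative to vehicle controls.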

Male DIO C57BL/6J mice = assay: Repeated dosing study in diet-induced obese (DIO) mice; type: in vivo, mouse; conditions: for ALT / AST / Insulin / TC / TG: plasma, mean ± SD
Method: Male DIO C57BL/6J mice (40 weeks old) were divided into the groups based on the data of body weight, food intake, and plasma parameters. Vehicle or the compounds (P41) of Example 41 was subcutaneously administered once a day for 4 weeks. Body weight and food intake were monitored during the study. Compounds were dissolved in 10% DMSO/saline. After the study, blood was collected and plasma parameters were measured. At day 29, body composition was measured by EchoMRI (Hitachi Aloka Medical, Ltd., Japan) and the animals were sacrificed. For hematoxylin and eosin (HE) staining, livers were dissected from DIO mice after 4 weeks drug administration described in the above body-weight studies section. Livers were fixed in 4% paraformaldehyde, embedded in paraffin, sectioned, and stained with HE. After processing, the sections were mounted and then examined via light microscopy (NanoZoomer, Hamamatsu Photonics).
Total RNA was isolated from the liver using QIAzol reagent (QIAGEN Japan, Tokyo, Japan) and cDNA was synthesized using High-Capacity cDNA Reverse Transcription Kit (Applied Biosystems, CA, USA). Quantitative RT-PCR was performed using the ABI Prism 7900 Sequence Detection System with EXPRESS qPCR Super Mix (Thermo Fisher Scientific Inc. MA. USA). Mixtures of primers and probes (Applied Biosystems) were used for the detection of mRNA (Table 4). The expression levels were normalized to those of beta-actin and Peptidyl isomerase A.
Plasma glucose, triglyceride (TG), total cholesterol (TC), aspartate aminotransferase (AST), and alanine aminotransferase (ALT) were analyzed by Autoanalyzer 7180 (Hitachi High-Technologies Corporation, Japan). Blood glycated hemoglobin (GHb) was measured with the automated GHb analyzers (HLC-723G8, Tosoh, Tokyo, Japan). Liver triglyceride content was measured as follows: a piece of tissue was homogenized in saline and lipid was extracted by the addition of hexane:isopropanol (3:2) solution. The lipid phase was collected, dried and then dissolved in isopropanol. The concentration of triglyceride was measured by Triglyceride E-test (Wako Pure Chemical Industries, Ltd, Japan) and triglyceride content per g liver was calculated. Plasma insulin was measured with ELISA Assay kit (Shibayagi Co. Ltd., Japan).

[1] = 3 nmol/kg s.c. once a day for 4 weeks
[2] = 10 nmol/kg s.c. once a day for 4 weeks
[3] = 30 nmol/kg s.c. once a day for 4 weeks
[4] = 3, 10 and 30 nmol/kg s.c. once a day for 4 weeks, dose-dependent
[5] = quantitative RT-PCR, liver, 4 weeks

CCCCCCCCCCCCCCCC(=O)NCC(=O)NCC(=O)NCC(=O)NCC(=O)NCCCC[C@H](NC(=O)[C@H](CC(=O)O)NC(=O)[C@H](CO)NC(=O)[C@@H](NC(=O)[C@](C)(Cc1ccccc1)NC(=O)[C@@H](NC(=O)CNC(=O)[C@H](CCC(=O)O)NC(=O)C(C)(C)NC(=O)[C@H](Cc1ccc(O)cc1)NC)[C@@H](C)O)[C@@H](C)O)C(=O)N[C@@H](CO)C(=O)N[C@H](C(=O)NC(C)(C)C(=O)N[C@@H](CC(C)C)C(=O)N[C@@H](CCC(=O)O)C(=O)N[C@@H](CCCCN)C(=O)N[C@@H](CCC(N)=O)C(=O)N[C@@H](CCCNC(=N)N)C(=O)N[C@@H](CCC(N)=O)C(=O)N[C@@](C)(CC)C(=O)N[C@@H](CCC(=O)O)C(=O)N[C@@H](Cc1ccccc1)C(=O)N[C@H](C(=O)N[C@@H](CCCNC(=N)N)C(=O)N[C@@H](Cc1c[nH]cn1)C(=O)N[C@@H](CC(C)C)C(=O)N[C@@H](CC(C)C)C(=O)N[C@@H](CC(N)=O)C(=O)N[C@@H](CCCCN)C(=O)NC(C)(C)C(=O)N[C@H](C(=O)N[C@@H](CCCNC(=N)N)C(=O)N[C@@H](CCC(N)=O)C(=O)N[C@@H](CCCNC(=N)N)C(=O)N[C@@H](Cc1ccc(O)cc1)C(N)=O)[C@@H](C)O)C(C)C)[C@@H](C)CC [Example 41] (H-[NMeY][Aib]EGT[αMeF]TSDK([Gly-Gly-Gly-Gly-Palmitoyl])SI[Aib]LEKQRQ[Iva]EFVRHLLNK[Aib]TRQRY-NH2)
food consumption (cynomolgus monkeys; 0.05 and 0.15 mg/kg (ca. 10 and 30 nmol/kg) s.c., one male and one female): almost completely abolished food consumption | duration of inhibitory effect of food consumption (cynomolgus monkeys; 0.05 and 0.15 mg/kg s.c.): ≥ 2 days | vomiting (cynomolgus monkeys; 0.05 and 0.15 mg/kg s.c., throughout the experimental period): did not induce vomiting | induction of conditioned taste aversion (emetic effects) (Male C57BL/6J mice): did not induce CTA | Saccharin preference ratio (%) (Male C57BL/6J mice; two conditionings, mean ± SD): 76.8 ± 9.5% | Rate of feeding suppression (%) (male C57BL/6J mouse): −52.1% | decrease in body weight compared with vehicle group (Male DIO C57BL/6J mice; [1]): 14.6% | decrease in body weight compared with vehicle group (Male DIO C57BL/6J mice; [2]): 30.0% | decrease in body weight compared with vehicle group (Male DIO C57BL/6J mice; [3]): 37.1% | lean mass (EchoMRI) (Male DIO C57BL/6J mice; 3, 10 and 30 nmol/kg s.c. once a day for 4 weeks): subtle decrease | fat mass (EchoMRI) (Male DIO C57BL/6J mice; [4]): drastic decrease | inguinal, mesenteric and epididymal fat pad weight (Male DIO C57BL/6J mice; [4]): significantly decreased | liver TG content (Male DIO C57BL/6J mice; [4]): drastically decreased | liver weight (Male DIO C57BL/6J mice; [4]): drastically decreased | ALT (Male DIO C57BL/6J mice; [1]): 94.2 ± 32.3 U/L | AST (Male DIO C57BL/6J mice; [1]): 170.0 ± 37.2 U/L | Insulin (Male DIO C57BL/6J mice; [1]): 4.9 ± 2.9 ng/mL | TC (Male DIO C57BL/6J mice; [1]): 253.6 ± 11.9 mg/dL | TG (Male DIO C57BL/6J mice; [1]): 50.5 ± 16.2 mg/dL | ALT (Male DIO C57BL/6J mice; [2]): 35.6 ± 9.7 U/L | AST (Male DIO C57BL/6J mice; [2]): 88.8 ± 11.7 U/L | Insulin (Male DIO C57BL/6J mice; [2]): 3.7 ± 2.7 ng/mL | TC (Male DIO C57BL/6J mice; [2]): 189.5 ± 22.1 mg/dL | TG (Male DIO C57BL/6J mice; [2]): 62.2 ± 16.1 mg/dL | ALT (Male DIO C57BL/6J mice; [3]): 37.5 ± 7.7 U/L | AST (Male DIO C57BL/6J mice; [3]): 90.2 ± 10.3 U/L | Insulin (Male DIO C57BL/6J mice; [3]): 5.2 ± 2.1 ng/mL | TC (Male DIO C57BL/6J mice; [3]): 173.2 ± 16.4 mg/dL | TG (Male DIO C57BL/6J mice; [3]): 50.2 ± 6.6 mg/dL | hepatic gene expression of inhibitor of fibrosis (MMP2) (Male DIO C57BL/6J mice; [5]): tended to increase | hepatic gene expression related to fibrosis (Timp1, Col1α) and inflammation (CCl2) (Male DIO C57BL/6J mice; [5]): tended to decrease | hepatic lipid droplet, HE staining of liver slices (Male DIO C57BL/6J mice; s.c. once a day for 4 weeks): Reduction of hepatic lipid droplet
